Laboratory results from patent US7022737B2, “Manipulating nitrosative stress to kill pathologic microbes, pathologic helminths and pathologically proliferating cells or to upregulate nitrosative stress defenses” (Duke University, priority 1996, dated 2006).

Tests used:
[1] = molecular target: T1, gamma-glutamylcysteinyl synthetase (gamma-GCS) (Rattus norvegicus, UniProt P19468); details: mammalian systems, literature; cited from earlier work
T1 sequence (P19468 1-637): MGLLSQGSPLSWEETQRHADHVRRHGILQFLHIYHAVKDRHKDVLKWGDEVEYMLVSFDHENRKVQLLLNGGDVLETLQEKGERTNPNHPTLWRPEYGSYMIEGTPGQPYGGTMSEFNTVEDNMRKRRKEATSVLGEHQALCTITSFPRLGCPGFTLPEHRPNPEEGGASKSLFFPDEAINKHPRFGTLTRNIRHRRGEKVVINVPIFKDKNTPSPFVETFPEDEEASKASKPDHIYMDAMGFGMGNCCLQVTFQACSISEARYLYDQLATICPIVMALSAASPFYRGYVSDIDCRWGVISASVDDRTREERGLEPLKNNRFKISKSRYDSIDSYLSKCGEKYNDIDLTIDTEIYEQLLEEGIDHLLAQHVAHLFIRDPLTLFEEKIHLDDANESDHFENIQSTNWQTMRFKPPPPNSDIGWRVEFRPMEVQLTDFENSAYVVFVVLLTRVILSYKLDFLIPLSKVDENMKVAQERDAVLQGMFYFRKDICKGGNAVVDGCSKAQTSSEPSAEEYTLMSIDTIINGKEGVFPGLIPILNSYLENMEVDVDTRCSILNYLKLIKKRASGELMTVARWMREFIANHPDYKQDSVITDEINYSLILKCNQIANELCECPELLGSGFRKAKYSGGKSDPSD
T1 sequence (P48508 1-274 partner): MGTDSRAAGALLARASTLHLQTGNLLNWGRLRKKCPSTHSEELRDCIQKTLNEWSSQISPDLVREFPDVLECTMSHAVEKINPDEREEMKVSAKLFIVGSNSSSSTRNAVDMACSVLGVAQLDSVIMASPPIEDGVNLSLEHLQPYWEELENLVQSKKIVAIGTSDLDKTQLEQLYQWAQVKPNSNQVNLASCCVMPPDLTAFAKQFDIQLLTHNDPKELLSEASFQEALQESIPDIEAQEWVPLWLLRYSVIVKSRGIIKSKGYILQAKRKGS

trypanosomes = test: Patient with trypanosome infection; assay type: in vivo; details: L-buthionine-S-sulfoximine 3 mmol/kg p.o. every 4 hours and S-nitrosoglutathione iv 10 mg/kg every 8 hours, one week
Procedure: A person presents with high fever, moderate lymphadenopathy and reports that they have lost 40 pounds in the last month, two months after returning from a safari in sub-Saharan Africa. On questioning, the patient reports having developed during the safari an ulcer on their forearm two days following a bite by a fly. […] The patient is hospitalized and given L-buthionine-S-sulfoximine at a dose of 3 mmol/kg p.o. every 4 hours for one week. In addition, the patient receives S-nitrosoglutathione iv at a dose of 10 mg/kg every 8 hours for one week.

[2] = test system: benign prostatic hypertrophy; test: Patients with benign prostatic hypertrophy; assay type: in vivo
Excerpt: A person presents with a history of urinary hesitancy and multiple awakenings during the night. They are given a diagnosis of benign prostatic hypertrophy. Under stereotactic guidance, the patient's enlarged prostate gland is implanted with several porus polymer pellets designed to slowly release L-buthionine-S-sulfoximine (1 μmol/hr) and S-nitrosocysteine (1 μmol/hr). […] They then have nearly normal urine flow and usually wakes no more than once per night.
A similar patient with benign prostatic hypertrophy and very marked enlargement of their prostate is treated with NO-substituted finasteride (NO-substituted Proscar; 5 mg/day). NO-substitution is accomplished by replacement of the tert-butyl amine moiety of finasteride with S-nitroso-β-thio-tert-butyl amine.
A person with benign prostatic hypertrophy is treated with Finisteride (Proscar: 5 mg/day) and oral buthionine-S-sulfoximine at a dose of 10 mmol/kg four time/day.

Giardia lamblia = test: Patient with Giardia lamblia infection; assay type: in vivo; details: 4 mmol/kg four times a day p.o. with metronidazole 500 mg twice a day p.o. for five days

CCCCS(=N)(=O)CC[C@H](N)C(=O)O (stereo partly drawn) [L-buthionine-S-sulfoximine]
inhibition of gamma-GCS [1]: most effectively inhibited | clinical outcome (trypanosomes): blood smear is free of trypanosomes | clinical outcome ([2]; Finisteride 5 mg/day and oral buthionine-S-sulfoximine 10 mmol/kg four time/day): symptoms of hesitancy improve significantly over two months | clinical outcome ([2]; prostate-implanted polymer pellets releasing each agent at 1 μmol/hr): symptoms improve over a period of three weeks | clinical outcome (Giardia lamblia): stool culture becomes negative for Giardia after five days
